Format in all cases: in vivo, rat
Test [1] concerns TNF-α. The test is described as follows: Serum TNF-α ELISA in TNBS-induced colitis. The conditions noted are these: means±SE, n = 8. The method, then:
(§1) Chronic colitis was induced by weekly rectal injections of increasing doses of TNBS over 6 weeks (15, 30, 45, 60, 60, and 60 mg from day 0 to day 35), as previously described (4,12). Briefly, after food deprivation for 24 h, rats were anesthetized with an intraperitoneal injection of 1% isoflurane. TNBS was dissolved in ethanol (50%) and instilled into the colon using a cannula (0.25 mL), and then the rats were held upside down for 3 min to prevent escape of the intracolonic TNBS. Roflumilast was dissolved in dimethyl sulfoxide and diluted in 0.5% carboxymethyl cellulose sodium to a final concentration of 5.0 mg·kg^−1·day^−1 as previously described (13). Five groups of rats (n=8) were established: normal control (NC group), TNBS-treated (TNBS group, positive control), and three TNBS-treated groups that received oral sulfasalazine (SS group, 500 mg/kg) (14), oral roflumilast (by gastric gavage, OR group, 5 mg/kg), or rectal roflumilast (RR group, 5 mg/kg). Treatments were administered once daily in a volume of 200 μL for 15 days starting 48 h after the induction of colitis (from day 37) (15), and the control rats received equal amounts of vehicle. At the end of the treatment period, the rats were evaluated with the colitis activity score. To detect the effects of the treatments on systemic inflammatory processes, blood was collected for measurements of the proinflammatory mediators TNF-α, IL-2, and IL-6. At the end of the 15-day treatment period, the rats were sacrificed by cervical dislocation, and the colon was isolated, cleaned of feces, and measured for weight and length. Colonic myeloperoxidase (MPO) activity and glutathione (GSH) and malonaldehyde (MDA) levels were measured. The colon was examined macroscopically for gross changes and microscopically in sections stained with hematoxylin and eosin (H&E), Masson trichrome, and Periodic Acid Schiff (PAS) stains as well as KI-67 and TNF-α immunostaining. Blood was collected through cardiac puncture. The serum was obtained and stored at −80° C. until analysis. […]
A general note: In an ELISA, binding on a coated surface is turned into a signal by an enzyme label.

The test system of the next test is IL-6. The test is described as follows: Serum IL-6 ELISA in TNBS-induced colitis. The settings on record: means±SE, n = 8. The method, then: as §1
In a further test the test system is KI-67. In words: KI-67 immunostaining of colonic sections. The method, then:
as §1, with “[…] This primary antibody” for “Blood”, “detected using avidin-biotin peroxidase detection solution (Dako), and the signal” for “collected through cardiac puncture. The serum”, “visualized using diaminobenzidine.” for “obtained and stored at −80° C. until analysis.”

Test [2] has as its system TNF-α. In words: TNF-α immunostaining of colonic sections. The method, then: as §1, with “[…] This primary antibody” for “Blood”, “detected using avidin-biotin peroxidase detection solution (Dako), and the signal” for “collected through cardiac puncture. The serum”, “visualized using diaminobenzidine.” for “obtained and stored at −80° C. until analysis.”
Where [3] appears, read: oral, once daily for 15 days, SS 500 mg/kg, OR 5 mg/kg.
Where [4] appears, read: rectal, 5 mg/kg once daily for 15 days.
The mark [5] stands for this setting: oral, once daily for 15 days, sulfasalazine 500 mg/kg, roflumilast 5 mg/kg.

The results in this text go back to patent US20240108610A1, “RECTAL ADMINISTRATION OF ROFLUMILAST FOR THE TREATMENT OF CROHN'S DISEASE” (King Abdulaziz University, priority 2022, published 2024).

On to `O=C(Nc1c(Cl)cncc1Cl)c1ccc(OC(F)F)c(OCC2CC2)c1` [roflumilast], for which the “serum level of TNF-α” value in the test on TNF-α [1] (setting [3]) is recorded as 38.87 ± 2.33^a, b, f pg/mL; in the test with TNF-α [1] (setting [4]), 79.37 ± 1.88^a, c, e pg/mL. For the same molecule, the “serum level of IL-6” value in the test with IL-6 (setting [3]) is 21.85 ± 1.00^j, k, l pg/mL; in the test on IL-6 (setting [4]), 28.93 ± 0.50^j, k pg/mL. For the same molecule, the “KI-67 immunoexpression in the mucosa” value in the test on KI-67 (setting [5]) is given as “mildly positive reactions”; in the test with KI-67 (setting [4]), “very mild positive reactions”. Further, the “TNF-α immunoexpression in the mucosa” value in the test on TNF-α [2] (setting [5]) is recorded as “moderately positive reactions”; with TNF-α [2] (setting [4]), “strong positive reactions”.
Take `O=C(O)c1cc(/N=N/c2ccc(S(=O)(=O)Nc3ccccn3)cc2)ccc1O` [sulfasalazine]: the “serum level of TNF-α” value with TNF-α [1] (setting [3]) is 28.93 ± 0.5^b, d pg/mL. Further, in the test on IL-6 (setting [3]), the “serum level of IL-6” value was 16.14 ± 1.13^k, m pg/mL. Besides, the “KI-67 immunoexpression in the mucosa” value in the test with KI-67 (setting [5]) is given as “moderately positive reactions”. The “TNF-α immunoexpression in the mucosa” value in the test on TNF-α [2] (setting [5]) is on record as “very faint positive reactions”.
